Values quoted from earlier work in patent US8067542B1 (priority 2003, dated 2011).

Test system: Verticillium dahliae
Conditions: AlfAFP expressed in potato (Gao et al, 2000); cited from earlier work

For “Alf - wt: native alfalfa antifungal protein (plant defensin from Medicago sativa seeds), SEQ ID NO:2 (RTCENLADKYRGPCFSGCDTHCTTKENAVSGRCRDDFRCWCTKRC; listed as Medicago sativa)”, the “resistance to early dying disease in potato” value is listed as “confer resistance to early dying disease”.
